Test results from ChEMBL document CHEMBL4177573 (Bioorg Med Chem, 2017).

Key:
[1] = target: T1, Neuropeptide Y receptor type 2 (Homo sapiens, UniProt P49146); experiment: Displacement of [125I]-PYY from human neuropeptide Y2 receptor expressed in CHO cell membranes incubated for 60 mins by TopCount based method
T1 sequence (P49146 whole entry): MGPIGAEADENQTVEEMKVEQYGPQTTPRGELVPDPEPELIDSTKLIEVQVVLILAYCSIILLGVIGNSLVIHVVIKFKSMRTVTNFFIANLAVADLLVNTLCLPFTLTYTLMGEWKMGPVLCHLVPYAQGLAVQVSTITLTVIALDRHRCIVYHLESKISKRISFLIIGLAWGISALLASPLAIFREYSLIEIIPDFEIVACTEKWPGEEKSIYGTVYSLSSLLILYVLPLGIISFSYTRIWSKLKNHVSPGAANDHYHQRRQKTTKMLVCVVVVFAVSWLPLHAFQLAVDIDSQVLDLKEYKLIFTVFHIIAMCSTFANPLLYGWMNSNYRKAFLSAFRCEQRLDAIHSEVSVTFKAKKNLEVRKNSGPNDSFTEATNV

[2] = target: T1, Neuropeptide Y receptor type 2; experiment: Agonist activity at human neuropeptide Y2 receptor expressed in CHO cell membranes assessed as stimulation of [35S]GTPgammaS binding incubated for 120 mins by liquid scintillation counting method; assay type: functional
Mus musculus [3] = experiment: Anorectic activity in C57BL/6J mouse assessed as inhibition of food intake at 0.3 mg/kg/day, sc for 3 days dosed as continuous administration by infusion using osmotic pump; assay type: functional; conditions: 72 h
Mus musculus [4] = experiment: Anorectic activity in C57BL/6J mouse assessed as inhibition of food intake at 1 mg/kg/day, sc for 3 days dosed as continuous administration by infusion using osmotic pump; assay type: functional; conditions: 72 h
[5] = Cmax in C57BL/6J mouse at 1 mg/kg, sc measured during 5 mins to 24 hrs by LC/MS/MS method; assay type: ADME, organism-based; parameters: dose 1 mg/kg, route subcutaneous; conditions: in vivo
[6] = Total clearance in C57BL/6J mouse at 1 mg/kg, iv measured during 5 mins to 24 hrs by LC/MS/MS method; assay type: ADME, organism-based; conditions: in vivo
[7] = AUC (0 to 24 hrs) in C57BL/6J mouse at 1 mg/kg, iv measured during 5 mins to 24 hrs by LC/MS/MS method; assay type: ADME, organism-based; parameters: dose 1 mg/kg, time < 24 hr, route intravenous; conditions: in vivo
Mus musculus [8] = experiment: Anorectic activity in C57BL/6J mouse assessed as inhibition of food intake at 0.03 mg/kg/day, sc for 3 days dosed as continuous administration by infusion using osmotic pump; assay type: functional; conditions: 72 h
[9] = MRT in C57BL/6J mouse at 1 mg/kg, iv measured during 5 mins to 24 hrs by LC/MS/MS method; assay type: ADME, organism-based; conditions: in vivo
Mus musculus [10] = experiment: Antiobesity activity in DIO C57BL/6J mouse assessed as reduction in body weight at 1 mg/kg, sc […] for 2 weeks dosed by infusion of osmotic pumps; assay type: functional; conditions: 336 h
Mus musculus [11] = experiment: Drug level in C57BL/6J mouse at 1 mg/kg, iv measured during 5 mins to 24 hrs by LC/MS/MS method; assay type: ADME, organism-based; conditions: in vivo, read-out: Drug uptake
[12] = Tmax in C57BL/6J mouse at 1 mg/kg, sc measured during 5 mins to 24 hrs by LC/MS/MS method; assay type: ADME, organism-based; conditions: in vivo
Mus musculus [13] = experiment: Anorectic activity in C57BL/6J mouse assessed as inhibition of food intake at 0.3 mg/kg/day, sc dosed as […] and measured after 12 hrs; assay type: functional
[14] = Bioavailability in C57BL/6J mouse at 1 mg/kg, sc measured during 5 mins to 24 hrs by LC/MS/MS method; assay type: ADME, organism-based; conditions: in vivo
[15] = MRT in C57BL/6J mouse at 1 mg/kg, sc measured during 5 mins to 24 hrs by LC/MS/MS method; assay type: ADME, organism-based; conditions: in vivo
Mus musculus [16] = experiment: Antiobesity activity in DIO C57BL/6J mouse assessed as reduction in body weight at 0.01 mg/kg, sc for 2 weeks dosed as continuous administration by infusion of osmotic pumps; assay type: functional; conditions: 336 h
[17] = Volume of distribution at steady state in C57BL/6J mouse at 1 mg/kg, iv measured during 5 mins to 24 hrs by LC/MS/MS method; assay type: ADME, organism-based; conditions: in vivo, read-out: Vdss
[18] = AUC (0 to 24 hrs) in C57BL/6J mouse at 1 mg/kg, sc measured during 5 mins to 24 hrs by LC/MS/MS method; assay type: ADME, organism-based; parameters: time < 24 hr, dose 1 mg/kg, route subcutaneous; conditions: in vivo
Mus musculus [19] = experiment: Anorectic activity in C57BL/6J mouse assessed as inhibition of food intake at 0.3 mg/kg/day, sc dosed as […] and measured after 24 hrs; assay type: functional

Compound `CC[C@@](C)(NC(=O)[C@H]1CCCN1C(=O)[C@H](CO)NC(C)=O)C(=O)N[C@@H](Cc1cnc[nH]1)C(=O)N[C@@H](CC1CCCCC1)C(=O)N[C@@H](CC1CCCCC1)C(=O)N[C@@H](CC(N)=O)C(=O)N[C@@H](CC(C)C)C(=O)NC(C)(C)C(=O)N[C@H](C(=O)N[C@@H](CCCNC(=N)N)C(=O)N[C@@H](CCC(N)=O)C(=O)N[C@@H](CCCNC(=N)N)C(=O)N[C@@H](CC1CCCCC1)C(N)=O)[C@@H](C)O` has an IC50 [1] of 3.8 nM, an EC50 [2] of 0.5 nM and an inhibition in vivo at 0.3 mg/kg/day (Mus musculus [3]) of 33%.

In the case of `CC(C)C[C@H](NC(=O)[C@H](CC(N)=O)NC(=O)[C@H](CC1CCCCC1)NC(=O)[C@H](CC1CCCCC1)NC(=O)[C@H](Cc1cnc[nH]1)NC(=O)[C@H](CCCNC(=N)N)NC(=O)[C@H]1CCCN1C(=O)[C@H](CO)NC(=O)c1ccccc1)C(=O)NC(C)(C)C(=O)N[C@H](C(=O)N[C@@H](CCCNC(=N)N)C(=O)N[C@@H](CCC(N)=O)C(=O)N[C@@H](CCCNC(=N)N)C(=O)N[C@@H](CC1CCCCC1)C(N)=O)[C@@H](C)O`, the IC50 [1] is reported as 1.5 nM, the inhibition in vivo at 1 mg/kg/day (Mus musculus [4]) is reported as 7% and the EC50 [2] is reported as 0.8 nM.

For `CC[C@](C)(NC(=O)[C@H](CC1CCCCC1)NC(=O)[C@H](Cc1ccncc1)NC(=O)[C@](C)(CC)NC(=O)[C@H]1C[C@H](O)CN1C(=O)[C@H](CO)NC(C)=O)C(=O)N[C@@H](CC(N)=O)C(=O)N[C@@H](CCCCN)C(=O)NC(C)(C)C(=O)N[C@H](C(=O)N[C@@H](CCCNC(=N)N)C(=O)N[C@@H](CCC(N)=O)C(=O)N[C@@H](CCCNC(=N)N)C(=O)N[C@@H](CC1CCCCC1)C(N)=O)[C@@H](C)O`, the Cmax [5] was 666 nM, the clearance [6] was 19.5 mL/min/kg and the AUC(0-t) at 24 h [7] was 0.435 µM·h. It also gave an inhibition in vivo at 0.03 mg/kg/day (Mus musculus [8]) of 56%, an MRT [9] of 21 min and an inhibition in vivo at 1 mg/kg (Mus musculus [10]) of 1.7%. The IC50 [1] was 0.46 nM, the concentration (Mus musculus [11]) was 1660 nM and the Tmax [12] was 15 min. For the same compound, the inhibition in vivo at 0.3 mg/kg/day (Mus musculus [13]) was 38%, the bioavailability [14] was 108% and the MRT [15] was 31.2 min. The inhibition in vivo at 0.01 mg/kg (Mus musculus [16]) was 5%, the Vd [17] was 0.41 L/kg and the AUC(0-t) at 24 h [18] was 0.469 µM·h. For the same compound, the inhibition in vivo at 0.3 mg/kg/day (Mus musculus [19]) was 23% and the EC50 [2] was 0.17 nM.

Compound `CC(C)C[C@H](NC(=O)[C@H](CC(N)=O)NC(=O)[C@H](CC1CCCCC1)NC(=O)[C@H](CC1CCCCC1)NC(=O)[C@H](Cc1cnc[nH]1)NC(=O)[C@H](CCCNC(=N)N)NC(=O)[C@H]1CCCN1C(=O)[C@H](CO)NC(=O)CCC(=O)O)C(=O)NC(C)(C)C(=O)N[C@H](C(=O)N[C@@H](CCCNC(=N)N)C(=O)N[C@@H](CCC(N)=O)C(=O)N[C@@H](CCCNC(=N)N)C(=O)N[C@@H](CC1CCCCC1)C(N)=O)[C@@H](C)O` has an IC50 [1] of 2.3 nM, an inhibition in vivo at 1 mg/kg/day (Mus musculus [4]) of 103% and an EC50 [2] of 0.4 nM.

`CC(C)C[C@H](NC(=O)[C@H](CC(N)=O)NC(=O)[C@H](CC1CCCCC1)NC(=O)[C@H](CC1CCCCC1)NC(=O)[C@H](Cc1cnc[nH]1)NC(=O)[C@H](CCCNC(=N)N)NC(=O)[C@H]1CCCN1C(=O)[C@H](CO)NC(=O)C(C)C)C(=O)NC(C)(C)C(=O)N[C@H](C(=O)N[C@@H](CCCNC(=N)N)C(=O)N[C@@H](CCC(N)=O)C(=O)N[C@@H](CCCNC(=N)N)C(=O)N[C@@H](CC1CCCCC1)C(N)=O)[C@@H](C)O` showed an IC50 [1] of 1.3 nM, an inhibition in vivo at 1 mg/kg/day (Mus musculus [4]) of 46% and an EC50 [2] of 0.49 nM.
